Source: patent US20210300943A1, “OGA INHIBITOR COMPOUNDS” (Janssen Pharmaceutica NV, priority 2018, published 2021)

Biological target: T1, recombinant human Meningioma Expressed Antigen 5 (MGEA5), also referred to as O-GlcNAcase (OGA) (Homo sapiens, UniProt O60502)
T1 construct: Full length OGA enzyme was purchased at OnGene (cat #TP322411); purchased OnGene (so in the source)
T1 sequence (O60502 1-916): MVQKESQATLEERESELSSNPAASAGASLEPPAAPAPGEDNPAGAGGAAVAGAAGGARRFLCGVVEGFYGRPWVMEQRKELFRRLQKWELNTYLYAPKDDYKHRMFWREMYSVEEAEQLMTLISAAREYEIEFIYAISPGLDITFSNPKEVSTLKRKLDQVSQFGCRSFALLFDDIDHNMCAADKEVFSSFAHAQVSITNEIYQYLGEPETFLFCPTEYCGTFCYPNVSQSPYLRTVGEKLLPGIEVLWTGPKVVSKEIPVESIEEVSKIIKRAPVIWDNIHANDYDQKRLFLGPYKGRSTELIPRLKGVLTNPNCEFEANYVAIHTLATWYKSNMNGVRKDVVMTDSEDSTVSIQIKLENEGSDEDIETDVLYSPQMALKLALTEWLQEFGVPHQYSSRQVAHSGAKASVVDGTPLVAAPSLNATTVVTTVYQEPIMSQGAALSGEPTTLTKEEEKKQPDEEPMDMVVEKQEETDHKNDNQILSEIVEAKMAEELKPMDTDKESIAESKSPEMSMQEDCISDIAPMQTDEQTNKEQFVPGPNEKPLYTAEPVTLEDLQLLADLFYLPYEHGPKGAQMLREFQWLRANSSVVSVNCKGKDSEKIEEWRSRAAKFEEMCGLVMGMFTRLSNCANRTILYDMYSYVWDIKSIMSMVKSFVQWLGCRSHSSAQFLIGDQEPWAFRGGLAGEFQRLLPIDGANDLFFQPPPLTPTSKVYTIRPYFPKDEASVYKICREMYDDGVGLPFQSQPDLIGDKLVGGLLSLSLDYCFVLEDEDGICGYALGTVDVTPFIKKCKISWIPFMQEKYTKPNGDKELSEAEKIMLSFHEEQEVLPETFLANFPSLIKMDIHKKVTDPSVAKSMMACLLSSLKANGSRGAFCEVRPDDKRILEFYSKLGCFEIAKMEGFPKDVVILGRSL
Assay: OGA biochemical assay (inhibition of FM-GlcNAc hydrolysis, fluorescence)
Conditions: for Emax: maximal effect, read-out: Enzymatic Emax (%); for IC50: read-out: Enzymatic hOGA, pIC50 (converted)
Outline: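 Full-length recombinant OGA (2 nM) pre-incubated with compound 60 min at room temperature, then FM-GlcNAc (100 µM final) added in citrate/phosphate buffer pH 7.2 with 0.005% Tween-20. After 6 h at room temperature, stopped with carbonate pH 11.0; fluorescein read at 485/538 nm; IC50 and Hill coefficient from curve fit.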

Emax [%]	IC50 [nM]	Compound
101	7.94	Cc1cc([C@H]2CCCN(C(C)c3cnc4c(c3)OCCN4)C2)cc(C)n1 (single isomer, unassigned) [Product 135]
99	1.26	Cc1cc(OC[C@H]2CCCN(C(C)c3nc4c(cc3F)OCCO4)C2)cc(C)n1 (single isomer, unassigned) [Product 155]
